In patent US20250122174A1 (Shenzhen Yuanli Shenwan Innovative Medicine Co., Ltd., priority 2022, published 2025):

target: HPK1 (Homo sapiens (Human), UniProt Q92918); assay: HPK1 Inhibition Assay (ADP-Glo kinase assay); type: biochemical; details: ATP 10 μM
Protocol: A stock solution of 10 mM test compound was prepared in DMSO. The compound was prepared by 5-fold and 10-point serial dilutions with HPK1 kinase assay buffer. The HPK1 kinase assay buffer contained 40 mM Tris, pH 7.5; 20 mM MgCl2, 0.1 mg/ml BSA, and 50 μM DTT. 7.5 ng/μl of Active HPK1 (Promega, V4098) and 0.1 μg/ml MBP substrate protein were added to the reaction system. The final concentration of ATP in the HPK1 kinase reaction system was 10 μM. Serial diluted compounds were transferred to the reaction system and incubated at room temperature for 1 hr. 5 μL of ADP-Glo™ Reagent (Promega, V9101) was added and incubated for 40 min to stop the kinase reaction and deplete the unconsumed ATP. […] The luminescence was measured with a plate-reading luminometer.

Chain of HPK1 (Q92918 1-346 limits assumed): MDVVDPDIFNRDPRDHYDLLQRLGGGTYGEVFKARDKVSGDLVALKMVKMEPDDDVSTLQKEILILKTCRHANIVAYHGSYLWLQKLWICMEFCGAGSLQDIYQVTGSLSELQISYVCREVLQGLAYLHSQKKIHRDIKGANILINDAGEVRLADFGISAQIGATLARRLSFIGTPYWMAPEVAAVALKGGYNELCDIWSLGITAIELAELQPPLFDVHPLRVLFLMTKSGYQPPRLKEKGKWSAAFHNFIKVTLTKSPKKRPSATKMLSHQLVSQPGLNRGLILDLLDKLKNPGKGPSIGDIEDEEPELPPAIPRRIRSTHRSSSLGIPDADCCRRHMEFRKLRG

`Cn1c(C(C)(C)C)nc2c(N3CC[C@@](C)(N)C3)c(NC(=O)c3ccc(=O)n(-c4c(F)cccc4F)n3)ccc21` (single isomer, unassigned) [Example 100, ®-N-(4-(3-amino-3-methylpyrrolidin-1-yl)-2-(tert-butyl)-1-methyl-1H-benzo 111 midazolezol-5-yl)-1-(2,6-difluorophenyl)-6-oxo-1,6-dihydropyridazine-3-carboxamide] and `CC(C)c1nc2c(N3CC[C@](N)(CO)C3)c(NC(=O)c3ccc(=O)n(-c4c(F)cccc4F)n3)ccc2n1C` (single isomer, unassigned) [Example 124] cannot be ordered by IC50: less than 100 nM for the first, less than 100 nM for the second.

`Cn1c(C(C)(C)C)nc2c(N3CC[C@@](C)(N)C3)c(NC(=O)c3ccc(=O)n(-c4c(F)cccc4F)n3)ccc21` (single isomer, unassigned) [Example 101] and `CC(C)c1nc2c(N3CC[C@](N)(CO)C3)c(NC(=O)c3ccc(=O)n(-c4c(F)cccc4F)n3)ccc2n1C` (single isomer, unassigned) [Example 125] cannot be ordered by IC50: less than 100 nM for the first, less than 100 nM for the second.

`CC(C)c1nc2c(N3CC[C@](N)(C(F)(F)F)C3)c(NC(=O)c3ccc(=O)n(-c4c(F)cccc4F)n3)ccc2n1C` (single isomer, unassigned) [Example 138] and `N#Cc1ccncc1-c1ccc(NC(=O)c2ccc(=O)n(-c3c(F)cccc3F)n2)c(N2CC[C@](N)(C(F)(F)F)C2)c1` (single isomer, unassigned) [Example 358] cannot be ordered by IC50: less than 100 nM for the first, less than 100 nM for the second.

`CC(C)c1nc2c(N3CC[C@](N)(C(F)(F)F)C3)c(NC(=O)c3ccc(=O)n(-c4c(F)cccc4F)n3)ccc2n1C` (single isomer, unassigned) [Example 139] and `N#Cc1ccncc1-c1ccc(NC(=O)c2ccc(=O)n(-c3c(F)cccc3F)n2)c(N2CC[C@](N)(C(F)(F)F)C2)c1` (single isomer, unassigned) [Example 359] cannot be ordered by IC50: less than 100 nM for the first, less than 100 nM for the second.

`CC[C@@H]1CN(c2c(NC(=O)c3ccc(=O)n(-c4c(F)cccc4F)n3)ccc3c2cnn3C(C)C)C[C@@H]1N` (single isomer, unassigned) [Example 196] and `CO[C@@H]1CN(c2c(NC(=O)c3ccc(=O)n(-c4c(F)cccc4F)n3)ccc3c2cnn3C(C)C)C[C@H]1N` (stereo in doubt) [Example 200, N-(4-((3R,4R)-3-amino-4-methoxypyrrolidin-1-yl)-1-isopropyl-1H-indazol-5-yl)-1-(2,6-difluorophenyl)-6-oxo-1,6-dihydropyridazine-3-carboxamide] cannot be ordered by IC50: less than 100 nM for the first, less than 100 nM for the second.

`CC[C@@H]1CN(c2c(NC(=O)c3ccc(=O)n(-c4c(F)cccc4F)n3)ccc3c2cnn3C(C)C)C[C@@H]1N` (single isomer, unassigned) [Example 197] and `CC1(C)CN(c2c(NC(=O)c3ccc(=O)n(-c4c(F)cccc4F)n3)ccc3nn(C4(C(F)(F)F)CC4)cc23)C[C@@H]1N` (single isomer, unassigned) [Example 314] cannot be ordered by IC50: less than 100 nM for the first, less than 100 nM for the second.

First: N[C@H]1CN(c2c(NC(=O)c3ccc(=O)n(-c4c(F)cccc4F)n3)ccc3nn(C4(C(F)(F)F)CC4)cc23)CC12CC2 (single isomer, unassigned) [Example 313]
Second: Cn1c(C(F)(F)F)nc2c(N3CC[C@H](N)C3)c(NC(=O)c3ccnn(-c4c(F)cccc4F)c3=O)ccc21 [Example 39, (S)—N-(4-(3-aminopyrrolidin-1-yl)-1-methyl-2-(trifluoromethyl)-1H-benzo[d]imidazol-5-yl)-2-(2,6-difluorophenyl)-3-oxo-2,3-dihydropyridazine-4-carboxamide]
The IC50 of the first is lower: less than 100 nM for the first, 100 to 1000 nM for the second.

`C[C@]1(O)CCN(c2cc(-c3cnccc3C#N)ccc2NC(=O)c2ccc(=O)n(-c3c(F)cccc3F)n2)C1` (single isomer, unassigned) [Example 353] and `N#Cc1ccncc1-c1ccc(NC(=O)c2ccc(=O)n(-c3c(F)cccc3F)n2)c(N2CC[C@@](N)(CO)C2)c1` (single isomer, unassigned) [Example 355] cannot be ordered by IC50: less than 100 nM for the first, less than 100 nM for the second.

`C[C@]1(O)CCN(c2cc(-c3cnccc3C#N)ccc2NC(=O)c2ccc(=O)n(-c3c(F)cccc3F)n2)C1` (single isomer, unassigned) [Example 354] and `N#Cc1ccncc1-c1ccc(NC(=O)c2ccc(=O)n(-c3c(F)cccc3F)n2)c(N2CC[C@@](N)(CO)C2)c1` (single isomer, unassigned) [Example 356] cannot be ordered by IC50: less than 100 nM for the first, less than 100 nM for the second.

`COc1cccc(F)c1-c1nccc(C(=O)Nc2ccc3c(nc(C(F)F)n3C)c2N2CCC(N)C2)c1F` (stereo in doubt) [Example 164, N-(4-((S)-3-aminopyrrolidin-1-yl)-2-(difluoromethyl)-1-methyl-1H-benzo[d]imidazol-5-yl)-3-fluoro-2-(2-fluoro-6-methoxyphenyl)isonicotinamide] and `COc1cccc(F)c1-c1nccc(C(=O)Nc2ccc3c(nc(C)n3C)c2N2CC[C@H](N)C2)c1F` [Example 10, N-(4-((S)-3-aminopyrrolidin-1-yl)-1,2-dimethyl-1H-benzo[d]imidazol-5-yl)-3-fluoro-2-(2-fluoro-6-methoxyphenyl)isonicotinamide] cannot be ordered by IC50: less than 100 nM for the first, less than 100 nM for the second.

First: COc1cccc(F)c1-c1nccc(C(=O)Nc2cc(F)ccc2N2C[C@@H]3C[C@H]2CN3)c1F [Example 1, N-(2-((1S,4S)-2,5-diazabicyclo[2.2.1]heptan-2-yl)-5-fluorophenyl)-3-fluoro-2-(2-fluoro-6-methoxyphenyl)isonicotinamide]
Second: COc1cccc(F)c1-c1nccc(C(=O)Nc2cc(F)ccc2N2C[C@H]3C[C@@H]2CN3)c1F [Example 2, N-(2-((1R,4R)-2,5-diazabicyclo[2.2.1]heptan-2-yl)-5-fluorophenyl)-3-fluoro-2-(2-fluoro-6-methoxyphenyl)isonicotinamide]
The IC50 of the first is higher: 100 to 1000 nM for the first, less than 100 nM for the second. The second is the more potent here.

`COc1cccc(F)c1-c1cccc(C(=O)Nc2cc(F)ccc2N2C[C@H]3C[C@@H]2CN3)c1F` [Example 3, N-(2-((1R,4R)-2,5-diazabicyclo[2.2.1]heptan-2-yl)-5-fluorophenyl)-2,2′-difluoro-6′-methoxy-[1,1′-biphenyl]-3-carboxamide] and `COc1cccc(Cl)c1-c1nccc(C(=O)Nc2cc(F)ccc2N2C[C@H]3C[C@@H]2CN3)c1F` [Example 6, N-(2-((1R,4R)-2,5-diazabicyclo[2.2.1]heptan-2-yl)-5-fluorophenyl)-2-(2-chloro-6-methoxyphenyl)-3-fluoroisonicotinamide] fall in the same range of IC50: 100 to 1000 nM for the first, 100 to 1000 nM for the second.

Compared with `COc1ccc(Cl)c(F)c1-c1nccc(C(=O)Nc2cc(F)ccc2N2C[C@H]3C[C@@H]2CN3)c1F` [Example 4, N-(2-((1R,4R)-2,5-diazabicyclo[2.2.1]heptan-2-yl)-5-fluorophenyl)-2-(3-chloro-2-fluoro-6-methoxyphenyl)-3-fluoroisonicotinamide], `COc1ccc(F)c(F)c1-c1nccc(C(=O)Nc2cc(F)ccc2N2C[C@H]3C[C@@H]2CN3)c1F` [Example 5, N-(2-((1R,4R)-2,5-diazabicyclo[2.2.1]heptan-2-yl)-5-fluorophenyl)-2-(2,3-difluoro-6-methoxyphenyl)-3-fluoroisonicotinamide] is lower in IC50: 100 to 1000 nM for the first, less than 100 nM for the second.

First: COc1cccc(F)c1-c1nccc(C(=O)Nc2ccc3c(nc(C)n3C)c2C2C[C@H]3C[C@@H]2CN3)c1F (stereo partly drawn) [Example 7, N-(4-((1S,4S)-2-azabicyclo[2.2.1]heptan-5-yl)-1,2-dimethyl-1H-benzo[d]imidazol-5-yl)-3-fluoro-2-(2-fluoro-6-methoxyphenyl)isonicotinamide]
Second: COc1cccc(F)c1-c1nccc(C(=O)Nc2ccc3c(nc(C)n3C)c2N2CCC[C@H]2CO)c1F [Example 9, 3-fluoro-2-(2-fluoro-6-methoxyphenyl)-N-(4-((S)-2-(hydroxymethyl)pyrrolidin-1-yl)-1,2-dimethyl-1H-benzo[d]imidazol-5-yl)isonicotinamide]
The IC50 of the first is lower: less than 100 nM for the first, 100 to 1000 nM for the second. The first is the more potent here.

`COc1cccc(F)c1-c1nccc(C(=O)Nc2ccc3c(nc(C)n3C)c2N2CCC(N)CC2)c1F` [Example 8, N-(4-(4-aminopiperidin-1-yl)-1,2-dimethyl-1H-benzo[d]imidazol-5-yl)-3-fluoro-2-(2-fluoro-6-methoxyphenyl)isonicotinamide] and `COCc1nc2c(N3CC[C@H](N)C3)c(NC(=O)c3ccnc(-c4c(F)cccc4OC)c3F)ccc2n1C` [Example 15, N-{4-[(3S)-3-aminopyrrolidin-1-yl]-2-(methoxymethyl)-1-methyl-1,3-benzodiazol-5-yl}-3-fluoro-2-(2-fluoro-6-methoxyphenyl) pyridine-4-carboxamide] cannot be ordered by IC50: less than 100 nM for the first, less than 100 nM for the second.

`COCCn1c(C)nc2c(N3CC[C@H](N)C3)c(NC(=O)c3ccnc(-c4c(F)cccc4OC)c3F)ccc21` [Example 11, N-(4-((S)-3-aminopyrrolidin-1-yl)-1-(2-methoxyethyl)-2-methyl-1H-benzo[d]imidazol-5-yl)-3-fluoro-2-(2-fluoro-6-methoxyphenyl)isonicotinamide] and `COc1cccc(F)c1-c1nccc(C(=O)Nc2ccc3c(nc(-c4ccncc4F)n3C)c2N2CC[C@H](N)C2)c1F` [Example 14, N-{4-[(3S)-3-aminopyrrolidin-1-yl]-2-(3-fluoropyridin-4-yl)-1-methyl-1,3-benzodiazol-5-yl}-3-fluoro-2-(2-fluoro-6-methoxyphenyl)pyridine-4-carboxamide] cannot be ordered by IC50: less than 100 nM for the first, less than 100 nM for the second.

`COc1cccc(F)c1-c1nccc(C(=O)Nc2ccc(-c3cnccc3C#N)cc2N2CC[C@H](N)C2)c1F` [Example 12, N-(2-((S)-3-aminopyrrolidin-1-yl)-4-(4-cyanopyridin-3-yl)phenyl)-3-fluoro-2-(2-fluoro-6-methoxyphenyl)isonicotinamide] and `COc1cccc(F)c1-c1nccc(C(=O)Nc2ccc(-c3cnccc3C#N)cc2N2C[C@@H](N)C[C@H]2CO)c1F` [Example 13, N-(2-((2S,4S)-4-amino-2-(hydroxymethyl)pyrrolidin-1-yl)-4-(4-cyanopyridin-3-yl)phenyl)-3-fluoro-2-(2-fluoro-6-methoxyphenyl)isonicotinamide] cannot be ordered by IC50: less than 100 nM for the first, less than 100 nM for the second.
